# Reference: patent US20160168118A1, “N-(5-QUINOLIN-6-YL)PYRIDIN-3-YL) BENZSULFAMIDE DERIVATIVES, PREPARATION METHOD AND THERAPEUTIC USE THEREOF” (SECOND MILITARY MEDICAL UNIVERSITY, PLA, priority 2012, published 2016)
# Read-outs that look alike come from different tables or passages of the source.
# Experiments:
# [1] = test system: HCT116 (human colon cancer cells); experiment: MTT assay, HCT116; assay type: cell-based; conditions: HCT-116, 72 h
# [2] = test system: A549 (human lung cancer cells); experiment: MTT assay, A549; assay type: cell-based; conditions: 72 h
# Procedure: (§1) 1. Sample preparation: After dissolved with DMSO (Merck), PBS (−) was added to make 1000 μg/ml solution or a uniform suspension, and then diluted with PBS (−) containing the DMSO. Doxorubicin (DOX) was used as the positive control drug.
# (§2) 2. Cell Line • 1) A549 (human lung cancer cells); 2) HCT116 (human colon cancer cells); 3) HepG2 (human hepatoma cells); 4) ZR-75-30 (human breast cancer cells); 5) U87MG (human brain star glioblastoma)
# (§3) DMEM+5-10% FBS+double resistant
# (§4) MTT assay. 100 μl cell suspension was added at a concentration of 4˜5×10^4 cells/ml to each well of a 96-well plate, and was set at 37° C., 5% CO2 in the incubator. After 24 h, the sample solution was added, 10 μl/hole, double wells were set, 37° C., acting for 72 h at 5% CO2. […] of 5 mg/ml was added to each well, the dissolving liquid was added after acted for 4 h, 100 μl/hole, kept in the incubator, and read 570 nm OD with MK-2 automatic microplate reader after dissolution.
# [3] = test system: HepG2 (human hepatoma cells); experiment: MTT assay, HepG2; assay type: cell-based; conditions: 72 h
# Procedure: as §1, §2, §3, §4
# [4] = test system: U87MG (human brain star glioblastoma); experiment: MTT assay, U87MG; assay type: cell-based; conditions: U-87 MG, 72 h
# Procedure: as §1, §2, §3, §4
# [5] = test system: ZR-75-30 (human breast cancer cells); experiment: MTT assay, ZR-75-30; assay type: cell-based; conditions: 72 h
# Procedure: as §1, §2, §3, §4
# [6] = target: PI3Kα (Homo sapiens, UniProt P42336); experiment: Kinase-Glo Luminescent Kinase Assay, PI3Kα; assay type: biochemical
# [7] = target: PI3Kβ (Homo sapiens, UniProt P42338); experiment: ADP-Glo Luminescent Kinase Assay, PI3Kβ; assay type: biochemical; conditions: read-out: IC50 on PI3K beta
# [8] = target: PI3K delta (Homo sapiens, UniProt O00329); experiment: Kinase-Glo Luminescent Kinase Assay, PI3K delta; assay type: biochemical
# [9] = test system: SF539; experiment: NCI cytotoxicity test, SF539; assay type: cell-based; conditions: Homo sapiens, SF-539
# Description: (§5) Cytotoxicity Test of Compound 9, 10 and 17 on 60 Kinds of Human Cancer Cell Lines from the US National Cancer Institute
# [10] = test system: PC3; experiment: NCI cytotoxicity test, PC3; assay type: cell-based; conditions: Homo sapiens, PC-3
# Description: as §5
# [11] = test system: SN12C; experiment: NCI cytotoxicity test, SN12C; assay type: cell-based; conditions: Homo sapiens
# Description: as §5
# [12] = test system: MCF7; experiment: NCI cytotoxicity test, MCF7; assay type: cell-based; conditions: Homo sapiens
# Description: as §5
# [13] = target: PI3Kγ (Homo sapiens, UniProt P48736); experiment: ADP-Glo Luminescent Kinase Assay, PI3Kγ; assay type: biochemical; conditions: read-out: IC50 on PI3K gamma
# [14] = test system: 60 kinds of human cancer cell lines; experiment: Cytotoxicity test on 60 kinds of human cancer cell lines from the US National Cancer Institute; assay type: cell-based
# Description: as §5
# [15] = test system: COLO205; experiment: NCI cytotoxicity test, COLO205; assay type: cell-based; conditions: Homo sapiens, COLO 205
# Description: as §5
# [16] = test system: OVCAR3; experiment: NCI cytotoxicity test, OVCAR3; assay type: cell-based; conditions: Homo sapiens, OVCAR-3
# Description: as §5
# [17] = test system: five human tumor cells; experiment: MTT assay, five human tumor cells (summary in words); assay type: cell-based; conditions: A549, HCT116, HepG2, ZR-75-30, U87MG
# Procedure: as §1, §2, §3, §4
# [18] = target: mTOR (Homo sapiens, UniProt P42345); experiment: Lance Ultra Assay, mTOR; assay type: biochemical
# [19] = test system: A549; experiment: NCI cytotoxicity test, A549; assay type: cell-based; conditions: Homo sapiens
# Description: as §5
# [20] = on the 60 kinds of tumor cells, read-out: Average GI50
# Chain of PI3Kα (P42336 whole entry, species assumed): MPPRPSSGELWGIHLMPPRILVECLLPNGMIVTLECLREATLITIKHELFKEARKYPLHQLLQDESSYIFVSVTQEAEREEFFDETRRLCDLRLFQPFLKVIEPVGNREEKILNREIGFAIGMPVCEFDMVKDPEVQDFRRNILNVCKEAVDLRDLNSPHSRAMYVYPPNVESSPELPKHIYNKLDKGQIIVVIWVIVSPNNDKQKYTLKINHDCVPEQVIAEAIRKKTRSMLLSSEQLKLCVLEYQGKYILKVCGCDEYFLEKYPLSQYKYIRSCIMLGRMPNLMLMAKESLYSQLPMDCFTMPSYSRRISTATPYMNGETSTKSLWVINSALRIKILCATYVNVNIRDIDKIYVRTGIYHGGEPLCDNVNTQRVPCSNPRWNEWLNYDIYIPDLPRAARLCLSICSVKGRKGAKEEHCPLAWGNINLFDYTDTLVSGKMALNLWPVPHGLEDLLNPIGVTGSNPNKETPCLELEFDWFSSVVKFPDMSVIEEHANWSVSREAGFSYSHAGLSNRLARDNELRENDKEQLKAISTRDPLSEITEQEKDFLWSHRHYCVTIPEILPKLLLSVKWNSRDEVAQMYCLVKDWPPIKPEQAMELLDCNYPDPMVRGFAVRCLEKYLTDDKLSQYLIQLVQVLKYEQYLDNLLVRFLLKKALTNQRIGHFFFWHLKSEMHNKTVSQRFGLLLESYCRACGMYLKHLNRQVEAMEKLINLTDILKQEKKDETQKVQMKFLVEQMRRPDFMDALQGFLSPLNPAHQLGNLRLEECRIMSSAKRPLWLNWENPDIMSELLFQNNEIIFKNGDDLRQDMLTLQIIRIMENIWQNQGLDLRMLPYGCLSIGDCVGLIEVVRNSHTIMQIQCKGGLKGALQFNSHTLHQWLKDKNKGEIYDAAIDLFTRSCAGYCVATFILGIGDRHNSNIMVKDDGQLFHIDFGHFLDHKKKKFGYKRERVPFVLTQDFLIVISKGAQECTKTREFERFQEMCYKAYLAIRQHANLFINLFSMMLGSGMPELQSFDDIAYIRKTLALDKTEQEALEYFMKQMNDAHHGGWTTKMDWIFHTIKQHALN
# Chain of PI3Kα (P27986 whole entry partner, species assumed): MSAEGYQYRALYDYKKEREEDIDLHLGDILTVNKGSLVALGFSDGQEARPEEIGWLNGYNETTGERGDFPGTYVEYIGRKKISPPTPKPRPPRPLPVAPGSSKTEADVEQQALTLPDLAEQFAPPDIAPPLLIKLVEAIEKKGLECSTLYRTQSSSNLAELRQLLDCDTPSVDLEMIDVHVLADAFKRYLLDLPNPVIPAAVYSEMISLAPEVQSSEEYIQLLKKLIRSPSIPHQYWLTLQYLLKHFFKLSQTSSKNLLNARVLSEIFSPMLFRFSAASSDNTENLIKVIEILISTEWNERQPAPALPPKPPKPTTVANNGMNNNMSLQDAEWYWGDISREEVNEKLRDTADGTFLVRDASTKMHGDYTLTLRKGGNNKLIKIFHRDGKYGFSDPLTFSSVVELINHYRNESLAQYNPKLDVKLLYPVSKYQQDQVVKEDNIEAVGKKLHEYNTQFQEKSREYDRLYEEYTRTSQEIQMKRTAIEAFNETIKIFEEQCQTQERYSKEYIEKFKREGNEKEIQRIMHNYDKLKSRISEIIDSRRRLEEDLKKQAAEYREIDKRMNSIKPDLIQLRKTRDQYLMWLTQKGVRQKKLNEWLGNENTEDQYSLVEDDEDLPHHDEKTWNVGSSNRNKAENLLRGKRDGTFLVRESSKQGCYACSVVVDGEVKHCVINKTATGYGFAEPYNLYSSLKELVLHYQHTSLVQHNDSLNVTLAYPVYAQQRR
# Chain of PI3Kγ (P48736 whole entry, species assumed): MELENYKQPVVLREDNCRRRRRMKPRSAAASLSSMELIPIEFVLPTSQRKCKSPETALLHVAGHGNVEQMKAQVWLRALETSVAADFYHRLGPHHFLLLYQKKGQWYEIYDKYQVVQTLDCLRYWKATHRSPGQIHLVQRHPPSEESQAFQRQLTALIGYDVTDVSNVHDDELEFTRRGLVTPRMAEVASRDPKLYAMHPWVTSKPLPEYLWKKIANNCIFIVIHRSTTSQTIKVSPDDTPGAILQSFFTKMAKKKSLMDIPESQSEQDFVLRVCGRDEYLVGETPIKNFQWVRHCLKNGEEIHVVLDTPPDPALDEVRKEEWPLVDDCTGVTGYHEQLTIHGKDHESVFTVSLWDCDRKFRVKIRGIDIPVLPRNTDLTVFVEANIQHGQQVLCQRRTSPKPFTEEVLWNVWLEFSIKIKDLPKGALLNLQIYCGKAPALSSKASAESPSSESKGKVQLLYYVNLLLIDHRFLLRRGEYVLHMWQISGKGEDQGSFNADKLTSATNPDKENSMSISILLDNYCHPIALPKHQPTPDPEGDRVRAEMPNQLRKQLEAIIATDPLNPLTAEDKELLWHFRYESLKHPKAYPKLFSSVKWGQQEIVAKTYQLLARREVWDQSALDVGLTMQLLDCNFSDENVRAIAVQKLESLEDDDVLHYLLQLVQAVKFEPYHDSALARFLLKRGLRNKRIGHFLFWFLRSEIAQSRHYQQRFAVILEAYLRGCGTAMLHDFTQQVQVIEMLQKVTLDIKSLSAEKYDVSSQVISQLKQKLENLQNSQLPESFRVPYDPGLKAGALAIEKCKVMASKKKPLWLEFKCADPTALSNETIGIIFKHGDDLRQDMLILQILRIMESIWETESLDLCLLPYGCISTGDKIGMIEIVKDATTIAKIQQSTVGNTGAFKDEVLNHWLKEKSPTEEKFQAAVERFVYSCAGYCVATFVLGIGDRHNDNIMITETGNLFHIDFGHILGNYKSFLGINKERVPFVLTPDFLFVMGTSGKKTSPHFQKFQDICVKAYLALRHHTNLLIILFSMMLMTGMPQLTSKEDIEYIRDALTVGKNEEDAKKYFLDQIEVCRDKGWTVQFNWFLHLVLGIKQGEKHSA
# Chain of PI3K delta (O00329 whole entry): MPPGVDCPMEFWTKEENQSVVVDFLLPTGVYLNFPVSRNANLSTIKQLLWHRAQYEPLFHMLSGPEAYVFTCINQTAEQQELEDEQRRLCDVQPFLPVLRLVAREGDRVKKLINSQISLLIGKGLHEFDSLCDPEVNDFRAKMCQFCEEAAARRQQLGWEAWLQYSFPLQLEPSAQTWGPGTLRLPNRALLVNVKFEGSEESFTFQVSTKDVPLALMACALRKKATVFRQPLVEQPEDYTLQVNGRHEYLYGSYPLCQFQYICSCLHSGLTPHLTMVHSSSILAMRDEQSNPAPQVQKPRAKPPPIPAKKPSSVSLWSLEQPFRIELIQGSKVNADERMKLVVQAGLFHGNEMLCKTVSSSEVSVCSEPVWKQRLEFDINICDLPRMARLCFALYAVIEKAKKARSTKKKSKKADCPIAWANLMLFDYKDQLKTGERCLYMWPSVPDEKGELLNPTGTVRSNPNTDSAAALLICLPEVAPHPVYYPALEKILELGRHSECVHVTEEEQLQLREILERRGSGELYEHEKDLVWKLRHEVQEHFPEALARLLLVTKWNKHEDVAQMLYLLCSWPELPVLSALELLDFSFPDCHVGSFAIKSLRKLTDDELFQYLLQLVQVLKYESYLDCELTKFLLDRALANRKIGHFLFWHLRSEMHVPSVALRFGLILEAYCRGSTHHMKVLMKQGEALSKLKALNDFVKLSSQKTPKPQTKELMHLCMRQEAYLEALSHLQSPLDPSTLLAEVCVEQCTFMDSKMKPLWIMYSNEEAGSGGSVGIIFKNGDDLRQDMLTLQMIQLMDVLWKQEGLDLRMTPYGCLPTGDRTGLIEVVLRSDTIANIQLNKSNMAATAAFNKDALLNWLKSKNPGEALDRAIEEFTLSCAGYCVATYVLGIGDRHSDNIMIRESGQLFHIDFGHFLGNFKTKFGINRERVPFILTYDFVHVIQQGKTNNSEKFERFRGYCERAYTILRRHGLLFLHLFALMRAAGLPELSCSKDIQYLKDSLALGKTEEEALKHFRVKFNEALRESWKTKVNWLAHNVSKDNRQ
# Chain of PI3K delta (P27986 whole entry partner): as the sequence (P27986 whole entry partner, species assumed) above
# Chain of PI3Kβ (P42338 whole entry, species assumed): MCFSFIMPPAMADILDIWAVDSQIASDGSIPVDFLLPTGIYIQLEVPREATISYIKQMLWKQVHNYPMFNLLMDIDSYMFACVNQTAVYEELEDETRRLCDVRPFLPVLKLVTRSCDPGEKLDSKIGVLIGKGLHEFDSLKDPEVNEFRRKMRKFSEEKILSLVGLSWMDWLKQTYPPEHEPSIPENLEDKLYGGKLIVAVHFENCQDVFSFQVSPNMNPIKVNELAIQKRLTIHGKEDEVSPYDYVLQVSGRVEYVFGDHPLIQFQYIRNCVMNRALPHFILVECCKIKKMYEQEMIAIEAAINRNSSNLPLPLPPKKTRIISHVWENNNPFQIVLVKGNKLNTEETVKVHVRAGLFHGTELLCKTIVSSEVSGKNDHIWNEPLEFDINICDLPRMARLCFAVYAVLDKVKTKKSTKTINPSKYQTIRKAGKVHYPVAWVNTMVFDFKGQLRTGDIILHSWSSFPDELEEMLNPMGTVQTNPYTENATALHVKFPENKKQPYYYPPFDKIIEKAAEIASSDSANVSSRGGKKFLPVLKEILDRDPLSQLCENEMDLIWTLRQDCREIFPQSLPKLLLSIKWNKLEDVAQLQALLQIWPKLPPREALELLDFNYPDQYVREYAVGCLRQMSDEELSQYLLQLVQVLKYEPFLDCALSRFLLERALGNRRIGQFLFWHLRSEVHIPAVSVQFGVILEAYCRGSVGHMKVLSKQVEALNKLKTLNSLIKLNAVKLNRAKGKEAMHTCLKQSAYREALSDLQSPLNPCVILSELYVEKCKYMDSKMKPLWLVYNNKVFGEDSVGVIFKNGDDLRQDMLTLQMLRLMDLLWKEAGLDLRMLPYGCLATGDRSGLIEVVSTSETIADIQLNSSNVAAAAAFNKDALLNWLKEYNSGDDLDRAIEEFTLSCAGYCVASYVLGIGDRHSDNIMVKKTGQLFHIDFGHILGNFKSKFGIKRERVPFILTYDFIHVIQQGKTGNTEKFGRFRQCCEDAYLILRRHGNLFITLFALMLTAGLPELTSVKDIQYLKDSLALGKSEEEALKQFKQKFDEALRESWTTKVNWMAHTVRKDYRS
# Chain of PI3Kβ (P27986 whole entry partner, species assumed): as the sequence (P27986 whole entry partner, species assumed) above
Compound,melting point,IC50 [1],IC50 [2],IC50 [3],IC50 [4],IC50 [5],IC50 [6],IC50 [7],IC50 [8],IC50 [13],IC50 [18],GI50 [9],GI50 [10],GI50 [11],GI50 [12],"GI50 [14, 20]",GI50 [15],GI50 [16],in vitro proliferation inhibition (in words) [17],GI50 [19],also measured
"COC(=O)c1ccc(-c2ccnc3ccc(-c4cnc(OC)c(NS(=O)(=O)c5ccc(F)cc5F)c4)cc23)cc1 [Compound 7, 4-(6-(5-(2,4-difluorobenzenesulfonamideyl)-6-methoxypyridine-3-yl)quinolin-4-yl)methyl benzoate]",69 to 72 °C,0.277 µg/mL,0.014 µg/mL,1.16 µg/mL,3.9 µg/mL,1.74 µg/mL,1.5 nM,–,–,–,–,–,–,–,–,–,–,–,–,–,–
"CCN(CC)Cc1ccc(-c2ccnc3ccc(-c4cnc(OC)c(NS(=O)(=O)c5ccc(F)cc5F)c4)cc23)cc1 [Compound 5, N-(5-(4-(4-((diethylamine)methyl)phenyl)quinolin-6-yl)-2-methoxypyridine-3-yl)-2,4-difluorobenzenesulfonamide]",106 to 108 °C,0.00293 µg/mL,0.013 µg/mL,0.613 µg/mL,2.88 µg/mL,0.783 µg/mL,1.1 nM,–,–,–,–,–,–,–,–,–,–,–,–,–,–
COc1ncc(-c2ccc3nccc(N4CCCC4)c3c2)cc1NS(=O)(=O)c1ccc(F)cc1F [Compound 2],223 to 225 °C,1.65 µg/mL,1.69 µg/mL,9.83 µg/mL,3.32 µg/mL,6.73 µg/mL,> 100 nM,–,–,–,–,–,–,–,–,–,–,–,–,–,–

# Continued, in another order:
melting point,IC50 [1],IC50 [2],IC50 [3],IC50 [4],IC50 [5],IC50 [6],IC50 [7],IC50 [8],IC50 [13],IC50 [18],Compound,GI50 [9],GI50 [10],GI50 [11],GI50 [12],"GI50 [14, 20]",GI50 [15],GI50 [16],in vitro proliferation inhibition (in words) [17],GI50 [19],also measured
84 to 85 °C,0.0028 µg/mL,0.012 µg/mL,–,0.092 µg/mL,–,0.59 nM,1.1 nM,3.4 nM,1.1 nM,2.2 nM,"COc1ncc(-c2ccc3nccc(-c4ccc(CN(C)CCO)cc4)c3c2)cc1NS(=O)(=O)c1ccc(F)cc1F [Compound 17, N-(5-(4-(4-(((2-hydroxyethyl)(methyl)amino)methyl)phenyl)quinolin-6-yl)-2-methoxypyridine-3-yl)-2,4-difluorobenzenesulfonamide]",< 10 nM,< 10 nM,< 10 nM,< 10 nM,15.8 nM,< 10 nM,< 10 nM,high in vitro proliferation inhibition,< 10 nM,"GI50 ([14]; on the 38 tumor cell lines, read-out: average half growth inhibitory concentration (GI50)): < 10 nM"
214 to 217 °C,1.06 µg/mL,0.13 µg/mL,1.1 µg/mL,–,–,1 nM,–,–,–,–,"CN(CCO)Cc1ccc(-c2ccnc3ccc(-c4cnc(Cl)c(NS(=O)(=O)c5ccc(F)cc5)c4)cc23)cc1 [Compound 36, N-(5-(4-(4-(((2-hydroxyethyl)(methyl)amino)methyl)phenyl)quinolin-6-yl)-2-chlorinepyridin-3-yl)-4-fluorobenzenesulfonamide]",–,–,–,–,–,–,–,–,–,–
121 to 123 °C,0.00507 µg/mL,0.00927 µg/mL,–,0.129 µg/mL,–,0.65 nM,1.7 nM,2.8 nM,0.74 nM,1.1 nM,"COc1ncc(-c2ccc3nccc(-c4ccc(Cn5cncn5)cc4)c3c2)cc1NS(=O)(=O)c1ccc(F)cc1F [Compound 10, N-(5-(4-(4-((1H-1,2,4-triazole-1-yl)methyl)phenyl)quinolin-6-yl)-2-methoxypyridine-3-yl)-2,4-difluorobenzenesulfonamide]",< 10 nM,< 10 nM,< 10 nM,< 10 nM,15.1 nM,< 10 nM,< 10 nM,high in vitro proliferation inhibition,< 10 nM,"GI50 ([14]; on the 36 tumor cell lines, read-out: average half growth inhibitory concentration (GI50)): < 10 nM"
